Source: PubChem BioAssay AID1259407 (Chemical Carcinogenesis Research Information System (CCRIS), 2018)
The source made the active and inactive calls. The rule behind the calls is not given here.

Test system: CCRIS mutagenicity, Ames/micronucleus/aberration tests
Assay: CCRIS mutagenicity studies
[1] = Test System: AMES SALMONELLA TYPHIMURIUM, Strain/Indicator: TA98, Metabolic Activation: HAMSTER, LIVER, S-9, AROCLOR 1254 (10%), Method: PREINCUBATION
[2] = Test System: AMES SALMONELLA TYPHIMURIUM, Strain/Indicator: TA98, Metabolic Activation: NONE, Method: PREINCUBATION
[3] = Test System: AMES SALMONELLA TYPHIMURIUM, Strain/Indicator: TA98, Metabolic Activation: RAT, LIVER, S-9, AROCLOR 1254 (10%), Method: PREINCUBATION
[4] = Test System: AMES SALMONELLA TYPHIMURIUM, Strain/Indicator: TA100, Metabolic Activation: HAMSTER, LIVER, S-9, AROCLOR 1254 (10%), Method: PREINCUBATION
[5] = Test System: AMES SALMONELLA TYPHIMURIUM, Strain/Indicator: TA100, Metabolic Activation: NONE, Method: PREINCUBATION
[6] = Test System: AMES SALMONELLA TYPHIMURIUM, Strain/Indicator: TA100, Metabolic Activation: RAT, LIVER, S-9, AROCLOR 1254 (10%), Method: PREINCUBATION
[7] = Test System: AMES SALMONELLA TYPHIMURIUM, Strain/Indicator: TA1535, Metabolic Activation: HAMSTER, LIVER, S-9, AROCLOR 1254 (10%), Method: PREINCUBATION
[8] = Test System: AMES SALMONELLA TYPHIMURIUM, Strain/Indicator: TA1535, Metabolic Activation: NONE, Method: PREINCUBATION
[9] = Test System: AMES SALMONELLA TYPHIMURIUM, Strain/Indicator: TA1535, Metabolic Activation: RAT, LIVER, S-9, AROCLOR 1254 (10%), Method: PREINCUBATION
[10] = Test System: AMES SALMONELLA TYPHIMURIUM, Strain/Indicator: TA1537, Metabolic Activation: HAMSTER, LIVER, S-9, AROCLOR 1254 (10%), Method: PREINCUBATION
[11] = Test System: AMES SALMONELLA TYPHIMURIUM, Strain/Indicator: TA1537, Metabolic Activation: NONE, Method: PREINCUBATION
[12] = Test System: AMES SALMONELLA TYPHIMURIUM, Strain/Indicator: TA1537, Metabolic Activation: RAT, LIVER, S-9, AROCLOR 1254 (10%), Method: PREINCUBATION

## Oc1c(Br)cc(Br)cc1Br
[1]
  mutagenic call: inactive; negative
Test System: AMES SALMONELLA TYPHIMURIUM, Strain/Indicator: TA98, Metabolic Activation: HAMSTER, LIVER, S-9, AROCLOR 1254, Method: STANDARD PLATE
  mutagenic call: inactive; negative
[2]
  mutagenic call: inactive; negative
Test System: AMES SALMONELLA TYPHIMURIUM, Strain/Indicator: TA98, Metabolic Activation: NONE, Method: STANDARD PLATE
  mutagenic call: inactive; negative
[3]
  mutagenic call: inactive; negative
Test System: AMES SALMONELLA TYPHIMURIUM, Strain/Indicator: TA98, Metabolic Activation: RAT, LIVER, S-9, AROCLOR 1254, Method: STANDARD PLATE
  mutagenic call: inactive; negative
[4]
  mutagenic call: inactive; negative
Test System: AMES SALMONELLA TYPHIMURIUM, Strain/Indicator: TA100, Metabolic Activation: HAMSTER, LIVER, S-9, AROCLOR 1254, Method: STANDARD PLATE
  mutagenic call: inactive; negative
[5]
  mutagenic call: inactive; negative
Test System: AMES SALMONELLA TYPHIMURIUM, Strain/Indicator: TA100, Metabolic Activation: NONE, Method: STANDARD PLATE
  mutagenic call: inactive; negative
[6]
  mutagenic call: inactive; negative
Test System: AMES SALMONELLA TYPHIMURIUM, Strain/Indicator: TA100, Metabolic Activation: RAT, LIVER, S-9, AROCLOR 1254, Method: STANDARD PLATE
  mutagenic call: inactive; negative
[7]
  mutagenic call: inactive; negative
Test System: AMES SALMONELLA TYPHIMURIUM, Strain/Indicator: TA1535, Metabolic Activation: HAMSTER, LIVER, S-9, AROCLOR 1254, Method: STANDARD PLATE
  mutagenic call: inactive; negative
[8]
  mutagenic call: inactive; negative
Test System: AMES SALMONELLA TYPHIMURIUM, Strain/Indicator: TA1535, Metabolic Activation: NONE, Method: STANDARD PLATE
  mutagenic call: inactive; negative
[9]
  mutagenic call: inactive; negative
Test System: AMES SALMONELLA TYPHIMURIUM, Strain/Indicator: TA1535, Metabolic Activation: RAT, LIVER, S-9, AROCLOR 1254, Method: STANDARD PLATE
  mutagenic call: inactive; negative
[10]
  mutagenic call: inactive; negative
Test System: AMES SALMONELLA TYPHIMURIUM, Strain/Indicator: TA1537, Metabolic Activation: HAMSTER, LIVER, S-9, AROCLOR 1254, Method: STANDARD PLATE
  mutagenic call: inactive; negative
[11]
  mutagenic call: inactive; negative
Test System: AMES SALMONELLA TYPHIMURIUM, Strain/Indicator: TA1537, Metabolic Activation: NONE, Method: STANDARD PLATE
  mutagenic call: inactive; negative
[12]
  mutagenic call: inactive; negative
Test System: AMES SALMONELLA TYPHIMURIUM, Strain/Indicator: TA1537, Metabolic Activation: RAT, LIVER, S-9, AROCLOR 1254, Method: STANDARD PLATE
  mutagenic call: inactive; negative
Test System: AMES SALMONELLA TYPHIMURIUM, Strain/Indicator: TA1538, Metabolic Activation: HAMSTER, LIVER, S-9, AROCLOR 1254, Method: STANDARD PLATE
  mutagenic call: inactive; negative
Test System: AMES SALMONELLA TYPHIMURIUM, Strain/Indicator: TA1538, Metabolic Activation: NONE, Method: STANDARD PLATE
  mutagenic call: inactive; negative
Test System: AMES SALMONELLA TYPHIMURIUM, Strain/Indicator: TA1538, Metabolic Activation: RAT, LIVER, S-9, AROCLOR 1254, Method: STANDARD PLATE
  mutagenic call: inactive; negative
Test System: MOUSE LYMPHOMA, Strain/Indicator: L5178Y (TK+/TK-), Metabolic Activation: NONE, Method: SUSPENSION/PLATE
  mutagenic call: active; positive. reevaluation of results: positive
Test System: MOUSE LYMPHOMA, Strain/Indicator: L5178Y (TK+/TK-), Metabolic Activation: RAT, LIVER, S-9, AROCLOR 1254, Method: SUSPENSION/PLATE
  mutagenic call: inactive; negative. reevaluation of results: negative
Test System: Mouse lymphoma, Strain/Indicator: L5178Y (tk+/tk-), Metabolic Activation: None, Method: Suspension/plate
  mutagenic call: active; positive
Test System: Mouse lymphoma, Strain/Indicator: L5178Y (tk+/tk-), Metabolic Activation: Rat, Liver, S-9, Aroclor 1254, Method: Suspension/plate
  mutagenic call: inactive; negative

## CCCCCCCCCCCCCCCCC1CO1 (stereo unspecified)
Test System: AMES SALMONELLA TYPHIMURIUM, Strain/Indicator: TA97, Metabolic Activation: HAMSTER, LIVER, S-9, AROCLOR 1254 (10%), Method: PREINCUBATION
  mutagenic call: inactive; negative
Test System: AMES SALMONELLA TYPHIMURIUM, Strain/Indicator: TA97, Metabolic Activation: HAMSTER, LIVER, S-9, AROCLOR 1254 (30%), Method: PREINCUBATION
  mutagenic call: inactive; negative
Test System: AMES SALMONELLA TYPHIMURIUM, Strain/Indicator: TA97, Metabolic Activation: NONE, Method: PREINCUBATION
  mutagenic call: inactive; negative
Test System: AMES SALMONELLA TYPHIMURIUM, Strain/Indicator: TA97, Metabolic Activation: RAT, LIVER, S-9, AROCLOR 1254 (10%), Method: PREINCUBATION
  mutagenic call: inactive; negative
Test System: AMES SALMONELLA TYPHIMURIUM, Strain/Indicator: TA97, Metabolic Activation: RAT, LIVER, S-9, AROCLOR 1254 (30%), Method: PREINCUBATION
  mutagenic call: inactive; negative
[1]
  mutagenic call: inactive; negative
Test System: AMES SALMONELLA TYPHIMURIUM, Strain/Indicator: TA98, Metabolic Activation: HAMSTER, LIVER, S-9, AROCLOR 1254 (30%), Method: PREINCUBATION
  mutagenic call: inactive; negative
[2]
  mutagenic call: inactive; negative
[3]
  mutagenic call: inactive; negative
Test System: AMES SALMONELLA TYPHIMURIUM, Strain/Indicator: TA98, Metabolic Activation: RAT, LIVER, S-9, AROCLOR 1254 (30%), Method: PREINCUBATION
  mutagenic call: inactive; negative
[4]
  mutagenic call: inactive; negative
Test System: AMES SALMONELLA TYPHIMURIUM, Strain/Indicator: TA100, Metabolic Activation: HAMSTER, LIVER, S-9, AROCLOR 1254 (30%), Method: PREINCUBATION
  mutagenic call: inactive; negative
[5]
  mutagenic call: inactive; negative
[6]
  mutagenic call: inactive; negative
Test System: AMES SALMONELLA TYPHIMURIUM, Strain/Indicator: TA100, Metabolic Activation: RAT, LIVER, S-9, AROCLOR 1254 (30%), Method: PREINCUBATION
  mutagenic call: inactive; negative
[7]
  mutagenic call: inactive; negative
Test System: AMES SALMONELLA TYPHIMURIUM, Strain/Indicator: TA1535, Metabolic Activation: HAMSTER, LIVER, S-9, AROCLOR 1254 (30%), Method: PREINCUBATION
  mutagenic call: inactive; negative
[8]
  mutagenic call: inactive; negative
[9]
  mutagenic call: inactive; negative
Test System: AMES SALMONELLA TYPHIMURIUM, Strain/Indicator: TA1535, Metabolic Activation: RAT, LIVER, S-9, AROCLOR 1254 (30%), Method: PREINCUBATION
  mutagenic call: inactive; negative
[10]
  mutagenic call: inactive; negative
Test System: AMES SALMONELLA TYPHIMURIUM, Strain/Indicator: TA1537, Metabolic Activation: HAMSTER, LIVER, S-9, AROCLOR 1254 (30%), Method: PREINCUBATION
  mutagenic call: inactive; negative
[11]
  mutagenic call: inactive; negative
[12]
  mutagenic call: inactive; negative
Test System: AMES SALMONELLA TYPHIMURIUM, Strain/Indicator: TA1537, Metabolic Activation: RAT, LIVER, S-9, AROCLOR 1254 (30%), Method: PREINCUBATION
  mutagenic call: inactive; negative
